{
  "source": "patent US20100086931A1",
  "about": "“METHOD FOR ASSAYING ACTION OF ANTITUMOR AGENT USING DECREASE IN GENE EXPRESSION LEVEL AS INDEX” (Eisai R&D Management Co., Ltd., priority 2007, published 2010)",
  "tested_on": "peripheral blood mononuclear cells (PBMC)",
  "experiment": "Microarray analysis (Human Genome U133 plus 2.0 array) of mRNA expression in PBMC treated with compound A",
  "format": "cell-based",
  "details": "100 nM, ratio to control",
  "excerpt": "Since it is not easy to obtain a cancer tissue clinically, the measurement of the marker in hemocytes readily obtainable in peripheral blood would be more useful. Specifically blood was taken from a normal individual (volunteer) and peripheral blood mononuclear cells were purified and treated with compound A, followed by measurement of change in expression of the gene (mRNA) with the microarray (Human Genome […] plus 2.0 array: Affymetrix).\nFicoll-Paque PLUS solution (Amersham, 17-1440-02) was slowly added to the blood taken (with heparin added) from a healthy individual to form a layer underneath the blood (15 ml of Ficoll-Paque PLUS solution was added to 25 ml of blood). After the mixture was centrifuged at 1500 rpm for 30 min, the upper part containing platelets was removed and then a layer containing mononuclear cells was transferred to another tube. The cells were suspended in PBS and centrifuged at 1500 rpm for 5 min, followed by removal of the supernatant. After these steps were repeated twice, the cells were again suspended in RPMI1640 (containing 10% FBS). The number of the cells was then counted.\nThe cells were suspended in the medium to 5×10^6 cells/ml and plated 1 ml per well of a 24-well plate. Immediately, 111 μl of compound A (ten times more concentrated than the final concentrations) was added to the well (four wells per each concentration tested). The cells were then cultured in an incubator with 5% carbon dioxide gas at 37° C. Two or four hours later, the supernatant was collected and centrifuged at 1500 rpm for five minutes. TRI reagent (SIGMA) (1 ml) was added to each well of the plate from which the supernatant was removed to harvest the cells, which was added to the centrifuged pellet to dissolve. RNA was purified in accordance with the protocol of TRI reagent. RNA was further purified using RNeasy (QIAGEN). Absorbance at 260 nm was measured to quantify an amount of RNA.\nA .cel file for each sample was obtained by using GeneChip Operating Software Ver.1.2 (Affymetrix). The RMA method was applied to ten of the .cel files obtained in the microarray experiment. Log signal intensity at a gene level was obtained by normalization of that at a probe level. By subtracting a control value from log signal intensity for each case, the log signal intensity was converted into a log signal ratio to the control. Genes were narrowed down in the basis of a log signal ratio, and a signal value. Specifically, among genes showing that the P value was 5% or less; the expression level in the untreated (control) is 100 or more by signal value; and the expression level when treated with 10 nM of compound A both for two and four hours decreased by 50% or more, genes of which expression level decreased to 25% or less upon the two-hour treatment were picked out. The software used is R2.2.1 (http://www.r-project.org/), affy package 1.8.1 (http://www.bioconductor.org).\nAmong genes showing, upon the treatment with compound A, that the P value was 5% or less; the expression level in the untreated (control) is 100 or more by signal value; and the expression level when treated with 10 nM of compound A both for two and four hours decreased by 50% or more, genes of which expression level decreased to 25% or less upon the two-hour treatment, and results thereof were shown in Table 2. For each gene evaluated, gene name (Gene Name), abbreviated name (Gene Symbol), accession number (Accession), alias name (Synonym), Probe set number in Human Genome U133 Plus 2.0 Array (Human Genome U133 Plus 2.0 Array Probeset ID), the expression level upon the two-hour treatment with E7107 (E7107 (2 h)), and the expression level upon the four-hour treatment with E7107 (E7107 (4 h)) were respectively shown in Table 2.",
  "data": [
    {"smiles": "CCC(O)C(C)C1OC1CC(C)(O)/C=C/C=C(\\C)C1OC(=O)CC(O)CCC(C)(O)C(OC(=O)N2CCN(C3CCCCCC3)CC2)/C=C/C1C", "note": "(stereo not drawn) [E7107, (8E,12E,14E)-7-((4-Cycloheptylpiperazin-1-yl)carbonyl)oxy-3,6,16,21-tetrahydroxy-6,10,12,16,20-pentamethyl-18,19-epoxytricosa-8,12,14-trien-11-olide]", "values": [
      {"measurement": "AHSA2 mRNA expression level (226665_at)", "setting": "2 h", "value": 0.20},
      {"measurement": "ATXN1 mRNA expression level (242230_at)", "setting": "2 h", "value": 0.25},
      {"measurement": "C13orf31 mRNA expression level (228937_at)", "setting": "2 h", "value": 0.04},
      {"measurement": "C15orf48 mRNA expression level (223484_at)", "setting": "2 h", "value": 0.02},
      {"measurement": "CCRL2//LOC642312 mRNA expression level (211434_s_at)", "setting": "2 h", "value": 0.22},
      {"measurement": "CLEC5A mRNA expression level (219890_at)", "setting": "2 h", "value": 0.08},
      {"measurement": "CSF2RA mRNA expression level (210340_s_at)", "setting": "2 h", "value": 0.08},
      {"measurement": "CTSL1 mRNA expression level (202087_s_at)", "setting": "2 h", "value": 0.20},
      {"measurement": "DHRS9 mRNA expression level (223952_x_at)", "setting": "2 h", "value": 0.18},
      {"measurement": "DOK3 mRNA expression level (223553_s_at)", "setting": "2 h", "value": 0.30},
      {"measurement": "FPRL2 mRNA expression level (230422_at)", "setting": "2 h", "value": 0.05},
      {"measurement": "GNA15 mRNA expression level (205349_at)", "setting": "2 h", "value": 0.11},
      {"measurement": "GPR84 mRNA expression level (223767_at)", "setting": "2 h", "value": 0.19},
      {"measurement": "GTF2H1 mRNA expression level (202451_at)", "setting": "2 h", "value": 0.07},
      {"measurement": "HNRPA2B1 mRNA expression level (225107_at)", "setting": "2 h", "value": 0.07},
      {"measurement": "HPSE mRNA expression level (222881_at)", "setting": "2 h", "value": 0.13},
      {"measurement": "IQCG mRNA expression level (235347_at)", "setting": "2 h", "value": 0.08},
      {"measurement": "LOC51315 mRNA expression level (233329_s_at)", "setting": "2 h", "value": 0.11},
      {"measurement": "MS4A7 mRNA expression level (224358_s_at)", "setting": "2 h", "value": 0.22},
      {"measurement": "NLRP12 mRNA expression level (1554952_s_at)", "setting": "2 h", "value": 0.24},
      {"measurement": "NRIP3 mRNA expression level (219557_s_at)", "setting": "2 h", "value": 0.11},
      {"measurement": "NSMCE4A mRNA expression level (228506_at)", "setting": "2 h", "value": 0.19},
      {"measurement": "OLR1 mRNA expression level (210004_at)", "setting": "2 h", "value": 0.01},
      {"measurement": "RAPH1 mRNA expression level (225188_at)", "setting": "2 h", "value": 0.05},
      {"measurement": "RBBP6 mRNA expression level (212781_at)", "setting": "2 h", "value": 0.12},
      {"measurement": "SLC25A19 mRNA expression level (223222_at)", "setting": "2 h", "value": 0.17},
      {"measurement": "SLC43A2 mRNA expression level (228918_at)", "setting": "2 h", "value": 0.17},
      {"measurement": "TNFAIP6 mRNA expression level (206026_s_at)", "setting": "2 h", "value": 0.07},
      {"measurement": "TNS1 mRNA expression level (221748_s_at)", "setting": "2 h", "value": 0.09},
      {"measurement": "TRAPPC4 mRNA expression level (217959_s_at)", "setting": "2 h", "value": 0.08},
      {"measurement": "Transcribed locus mRNA expression level (230098_at)", "setting": "2 h", "value": 0.08},
      {"measurement": "WSB1 mRNA expression level (201294_s_at)", "setting": "2 h", "value": 0.29},
      {"measurement": "ZCCHC6 mRNA expression level (220933_s_at)", "setting": "2 h", "value": 0.14},
      {"measurement": "AHSA2 mRNA expression level (226665_at)", "setting": "4 h", "value": 0.23},
      {"measurement": "ATXN1 mRNA expression level (242230_at)", "setting": "4 h", "value": 0.13},
      {"measurement": "C13orf31 mRNA expression level (228937_at)", "setting": "4 h", "value": 0.06},
      {"measurement": "C15orf48 mRNA expression level (223484_at)", "setting": "4 h", "value": 0.01},
      {"measurement": "CCRL2//LOC642312 mRNA expression level (211434_s_at)", "setting": "4 h", "value": 0.29},
      {"measurement": "CLEC5A mRNA expression level (219890_at)", "setting": "4 h", "value": 0.01},
      {"measurement": "CSF2RA mRNA expression level (210340_s_at)", "setting": "4 h", "value": 0.10},
      {"measurement": "CTSL1 mRNA expression level (202087_s_at)", "setting": "4 h", "value": 0.13},
      {"measurement": "DHRS9 mRNA expression level (223952_x_at)", "setting": "4 h", "value": 0.12},
      {"measurement": "DOK3 mRNA expression level (223553_s_at)", "setting": "4 h", "value": 0.35},
      {"measurement": "FPRL2 mRNA expression level (230422_at)", "setting": "4 h", "value": 0.02},
      {"measurement": "GNA15 mRNA expression level (205349_at)", "setting": "4 h", "value": 0.15},
      {"measurement": "GPR84 mRNA expression level (223767_at)", "setting": "4 h", "value": 0.38},
      {"measurement": "GTF2H1 mRNA expression level (202451_at)", "setting": "4 h", "value": 0.02},
      {"measurement": "HNRPA2B1 mRNA expression level (225107_at)", "setting": "4 h", "value": 0.10},
      {"measurement": "HPSE mRNA expression level (222881_at)", "setting": "4 h", "value": 0.11},
      {"measurement": "IQCG mRNA expression level (235347_at)", "setting": "4 h", "value": 0.05},
      {"measurement": "LOC51315 mRNA expression level (233329_s_at)", "setting": "4 h", "value": 0.06},
      {"measurement": "MS4A7 mRNA expression level (224358_s_at)", "setting": "4 h", "value": 0.03},
      {"measurement": "NLRP12 mRNA expression level (1554952_s_at)", "setting": "4 h", "value": 0.20},
      {"measurement": "NRIP3 mRNA expression level (219557_s_at)", "setting": "4 h", "value": 0.24},
      {"measurement": "NSMCE4A mRNA expression level (228506_at)", "setting": "4 h", "value": 0.19},
      {"measurement": "OLR1 mRNA expression level (210004_at)", "setting": "4 h", "value": 0.00},
      {"measurement": "RAPH1 mRNA expression level (225188_at)", "setting": "4 h", "value": 0.10},
      {"measurement": "RBBP6 mRNA expression level (212781_at)", "setting": "4 h", "value": 0.17},
      {"measurement": "SLC25A19 mRNA expression level (223222_at)", "setting": "4 h", "value": 0.18},
      {"measurement": "SLC43A2 mRNA expression level (228918_at)", "setting": "4 h", "value": 0.08},
      {"measurement": "TNFAIP6 mRNA expression level (206026_s_at)", "setting": "4 h", "value": 0.02},
      {"measurement": "TNS1 mRNA expression level (221748_s_at)", "setting": "4 h", "value": 0.06},
      {"measurement": "TRAPPC4 mRNA expression level (217959_s_at)", "setting": "4 h", "value": 0.04},
      {"measurement": "Transcribed locus mRNA expression level (230098_at)", "setting": "4 h", "value": 0.08},
      {"measurement": "WSB1 mRNA expression level (201294_s_at)", "setting": "4 h", "value": 0.25},
      {"measurement": "ZCCHC6 mRNA expression level (220933_s_at)", "setting": "4 h", "value": 0.06}
    ]}
  ]
}
